According to PMC11504387, “Synthesis and Biological Activity Assessment of 2-Styrylbenzothiazoles as Potential Multifunctional Therapeutic Agents” (Antioxidants, 2024):
One block for each molecule: values may come before it.

How the values were obtained:
primary human monocytes = test: Lipid mediator (LM) formation in primary human monocytes; type: cell-based; details: diclofenac 1 µM; A23187 2.5 µM, 30 min
Source text: Monocytes and polymorphonuclear leukocytes (PMNL) were freshly isolated from human blood. Human blood and leukocyte concentrates were provided by the Institute for Transfusion Medicine of the University Hospital Jena (Thuringia, Germany). The protocols for experiments with human blood and blood cells were approved by the ethical commission of the Friedrich Schiller University of Jena. Following blood density centrifugation and separation of cell populations, peripheral blood mononuclear cells (PBMC) were left to adhere for 1 h to cell culture flasks (monocyte-enriched PBMC). Non-adherent cells were washed off from the adherent monocytes, before pre-incubating monocytes (5 × 10^6 cells/mL) with the test compounds for 10 min at 37 °C. LM formation was elicited with A23187 (2.5 µM) and CaCl2 (1 mM) over 30 min. The reaction was stopped with 1 mL of ice-cold methanol containing 10 µL of deuterium-labelled internal LM standards (200 nM d8-5S-HETE, d4-LTB4, d5-LXA4, d5-RvD2, d4-PGE2 and 10 µM d8-AA). LMs were extracted using Sep-Pak C18 35 cc Vac Cartridges (Waters, Milford, MA, USA) and analysed by UPLC-MS/MS as described by Pein et al..
The ability to modulate LM formation was screened in primary human monocytes expressing the enzymes required for PGE2, LTB4, and 12-HETE production (Figure 2A). Cells were pre-treated with the test compounds BZTst1–6 (10 µM) or the reference COX inhibitor diclofenac (1 µM) for 10 min prior to stimulation with the calcium ionophore A23187 (2.5 µM) for 30 min.

skin HaCat keratinocytes = test: Cell growth inhibition assay, HaCat; type: cell-based, human; details: 24 h incubation; mean ± SD
Method: Cell growth inhibition analyses were performed on human melanoma Colo38 cells and skin HaCat keratinocytes. Human melanoma Colo38 cells were kindly given by Dr. Patrizio Giacomini (Laboratory of Immunology, Regina Elena Institute, Rome, Italy). HaCat cells were obtained from Istituto Zooprofilattico Sperimentale della Lombardia e dell’Emilia-Romagna, Brescia, Italy. Cells were seeded at 40,000 cells/mL and 25,000 cells/mL, respectively. Colo38 cells were maintained in RPMI 1640, supplemented with 10% foetal bovine serum (FBS), penicillin (100 Units/mL), and streptomycin (100 µg/mL). HaCat cells were maintained in DMEM, supplemented with 10% fatal bovine serum (FBS), penicillin (100 Units/mL), streptomycin (100 µg/mL) and glutamine (2 mM); the incubation was performed at 37 °C in a 5% CO2 atmosphere. Compounds were dissolved in DMSO to obtain 50 mM stock solutions and diluted before cell treatment in MeOH. The tested compounds were added at serial dilutions to the cell cultures (from 0.1 to 100 µM) and incubated for 24 h further. Cells were then harvested, suspended in physiological solution, and counted with a Z2 Coulter Counter (Coulter Electronics, Hialeah, FL, USA). The number of cells/mL and the IC50 values were determined when untreated cells were in the log phase of cell growth. Samples of vehicles and untreated cells were included in each plate. Cisplatin was used as positive control for the HaCat cells, while N1-(4-arylidene)-1H-(2-OH-4-N(Et)2-phenyl)-[d]imidazole-2-carbohydrazide was used as positive control for the Colo38 cell line.

[1] = DPPH radical scavenging activity; type: biochemical; details: values in brackets; mean ± SD
Method: For all the compounds, 0.750 mL of a DMSO-MeOH solution mixed with 1.5 mL of DPPH solution (0.004%) in MeOH was analysed. The samples were kept in the dark at room temperature for 30 min and then analysed with a spectrophotometer by reading the absorbance at 517 nm (lambda max of the absorption spectrum of the DPPH radical). Equation (5) was used to obtain the percentage inhibition (%) of the radical: DPPH radical-scavenging capacity (%) = [1 − (A1 − A2)/A0] × 100%(5) where A2 is the blank (MeOH), and A1 and A0 are, respectively, the recorded absorbances of the sample and control (0.750 MeOH and 1.5 mL DPPH solution), directly proportional to the concentration of residual DPPH. An initial screening was performed by testing all compounds at a concentration of 1 mg/mL (Trolox® was used as the standard); subsequently, compounds showing >90% radical inhibition were further tested to calculate their IC50 value (expressed in µg/mL). Ferulic acid was used as positive control. A linear regression was performed to calculate the sample concentration able to eliminate 50% of DPPH free radicals.

[2] = Ferric reducing antioxidant power (FRAP) test; type: biochemical; details: Trolox equivalents; mean ± SD
Method: The FRAP test, based on a colorimetric reaction, can assess the ability of a sample to reduce ferric ions to ferrous ions when complexed with 2,4,6-trispiridyl-s-triazine (TPTZ). The FRAP solution consisted of 0.1 M acetate buffer (pH 3.6), 10 mmol/L of TPTZ in 40 mM HCl and a 20 mM solution of FeCl3, in a 10:1:1 ratio. A 1.9 mL volume of the FRAP solution was incubated with 0.1 mL of the sample solution at 37 °C for 10 min. The absorbance was then read with a UV-Vis spectrophotometer at a wavelength of 593 nm, which corresponds to the maximum absorbance peak of the Fe^2+-TPTZ complex. Trolox® was used as a standard, and ferulic acid was used as positive control, and the results are expressed as µmol TE/g.

ORAC assay = type: biochemical; details: Trolox equivalents; mean ± SD
Method: The ORAC assay was performed based on the previously modified Hong procedure. The sodium salt of fluorescein (85 nM) was used as a target for free radical attack with 2,2′-azobis(2-amidinopropane) dichloride (AAPH) as a peroxyl radical generator in the final assay mixture (total volume of 0.2 mL). The test involves a calibration curve of Trolox (standard control) with different concentrations (40 to 240 μM). The compounds tested were first dissolved in DMSO:MeOH and then diluted in phosphate buffer solution pH 7.4. Fluorescence measurements were performed at 37 °C and recorded at 5-min intervals up to 30 min after the addition of AAPH. ORAC values were calculated as the difference in areas under the fluorescein quenching curves between the blank and the sample and were expressed as µmol Trolox equivalents (TE) per gram of dried sample.

SMILES: O=C(O)Cc1ccccc1Nc1c(Cl)cccc1Cl [diclofenac, reference compound]
PGE2 formation (primary human monocytes): significantly downregulated

SMILES: N.N.[Cl][Pt][Cl] [Cisplatin, reference compound]
IC50 (skin HaCat keratinocytes): 2000 ± 400 nM

DPPH IC50 (sample concentration able to scavenge 50% of the DPPH radical) [1]: (9.90 ± 0.70) µg/mL
SMILES: COc1cc(/C=C/C(=O)O)ccc1O [Ferulic Acid, reference compound]
FRAP [2]: 6872.60 ± 10.70 µmolTE/g
ORAC (ORAC assay): 15,906.40 ± 14.20 µmolTE/g
